As a reminder, the IC50 is the concentration that inhibits the measured activity by half.

Assay [1] has as its target Substance-P receptor (Homo sapiens, UniProt P25103). Nature of the assay: Inhibition of [125I]-substance P binding to human neurokinin-1 (hNK-1) receptor in CHO cells. It counts as cell-based.
A short description of assay [2]: Inhibition of [3H]diltiazem binding to L-type calcium channels of rabbit skeletal muscle. It is filed as tissue-based, Oryctolagus cuniculus, Muscle tissue.

Substance-P receptor, sequence (P25103 whole entry): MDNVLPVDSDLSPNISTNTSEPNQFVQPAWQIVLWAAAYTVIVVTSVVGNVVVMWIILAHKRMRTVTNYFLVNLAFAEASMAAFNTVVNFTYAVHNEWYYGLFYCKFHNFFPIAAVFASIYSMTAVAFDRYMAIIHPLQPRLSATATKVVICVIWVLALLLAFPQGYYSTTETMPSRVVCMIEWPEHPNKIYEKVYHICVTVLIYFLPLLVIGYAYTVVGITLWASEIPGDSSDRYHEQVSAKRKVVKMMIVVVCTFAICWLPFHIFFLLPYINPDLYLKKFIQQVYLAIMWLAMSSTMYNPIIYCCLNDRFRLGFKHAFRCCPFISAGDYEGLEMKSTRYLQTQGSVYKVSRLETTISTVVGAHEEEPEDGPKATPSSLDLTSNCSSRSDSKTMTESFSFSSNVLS

For `CCCCCN(CCCCC)C(=O)[C@H]1CCN(C(=O)N(c2ccccc2)c2ccccc2)[C@H](C(=O)NCCN(CC(N)=O)Cc2ccccc2OC)C1`, the results for the IC50 in assay [1] and in assay [2] were 0.0018 µM and 5.6 µM, respectively. As for `CCCCCN(CCCCC)C(=O)[C@H]1CCN(C(=O)N(c2ccccc2)c2ccccc2)[C@H](C(=O)NCCCN(CC)CC)C1`, the IC50 stood at 0.0055 µM in assay [1] and 0.82 µM in assay [2]. Take `CCCCCN(CCCCC)C(=O)[C@H]1CCN(C(=O)N(c2ccccc2)c2cccc(Cl)c2)[C@H](C(=O)O)C1`: the IC50 was 0.02 µM in assay [1] and more than 5 µM in assay [2].

On to `CCCCCN(CCCCC)C(=O)[C@H]1CCN(C(=O)N(c2ccccc2)c2ccccc2)[C@H](C(=O)O)C1`, for which the IC50 is 0.033 µM in assay [1] and more than 5 µM in assay [2]. `CCCCCN(CCCCC)C(=O)[C@@H]1CCN(C(=O)N(c2ccccc2)c2ccccc2)[C@H](C(=O)NCCN(C)Cc2ccccc2OC)C1`: the half-maximal inhibitory concentration (IC50) in assay [1] worked out at 0.073 µM.

Turning to `COc1ccccc1CN(C)CCNC(=O)[C@@H]1C[C@@H](C(=O)N(Cc2ccccc2)Cc2ccccc2)CCN1C(=O)N(c1ccccc1)c1cccc(Cl)c1`, the IC50 in assay [1] was found to be 0.0007 µM; in assay [2], 0.11 µM. For `CCCCCN(CCCCC)C(=O)[C@H]1CCN(C(=O)N(c2ccccc2)c2cccc(Cl)c2)[C@H](C(=O)NCCNCC(N)=O)C1`, in that order: 0.0035 µM and 3.7 µM.

In assay [1], `CCCCCN(CCCCC)C(=O)N1CCN(C(=O)N(c2ccccc2)c2cccc(Cl)c2)[C@H](C(=O)NCCCN(CC)CC)C1` came in with an IC50 of 0.008 µM.

`CCCCCN(CCCCC)C(=O)[C@H]1CCN(C(=O)N(c2ccccc2)c2cccc(Cl)c2)[C@H](C(=O)NCCN(C)Cc2ccccc2OC)C1`: the IC50 in assay [1] is 0.0014 µM; in assay [2], 0.21 µM. On the same counts, the results for `CCCCCN(CCCCC)C(=O)[C@H]1CCN(C(=O)N(c2ccccc2)c2ccccc2)[C@H](C(=O)NCCNCC(N)=O)C1` are 0.013 µM and 2.7 µM.

In the case of `CCCCCN(CCCCC)C(=O)[C@H]1CCN(C(=O)N(c2ccccc2)c2cccc(Cl)c2)[C@H](C(=O)NCCN(CC(N)=O)Cc2ccccc2OC)C1`, the IC50 was 0.0038 µM in assay [1] and 16.2 µM in assay [2].

In the case of `CCCCCN(CCCCC)C(=O)[C@H]1CCN(C(=O)N(c2ccccc2)c2cccc(Cl)c2)[C@H](C(=O)NCCN(CC(N)=O)C(=O)OCc2ccccc2)C1`, the IC50 in assay [1] was 0.0018 µM; in assay [2] it was more than 5 µM. For `CCCCCN(CCCCC)C(=O)[C@H]1CCN(C(=O)N(c2ccccc2)c2ccccc2)[C@H](C(=O)NCCN(C)Cc2ccccc2OC)C1`, in that order: 0.0018 µM and 0.2 µM. Turning to `COC(=O)[C@H]1CCN(C(=O)N(c2ccccc2)c2ccccc2)[C@H](C(=O)NCCN(C)Cc2ccccc2OC)C1`, the IC50 worked out at 0.25 µM in assay [1] and 0.47 µM in assay [2].

On to `COc1ccccc1CN[C@H]1C2CCN(CC2)[C@H]1C(c1ccccc1)c1ccccc1` [CP-96345], for which, in assay [2], the IC50 is 0.24 µM.

The values above are taken from ChEMBL document CHEMBL1159130, “1,2,4-Triacylpiperidine substance p antagonists: Separation of affinities for the NK-1 receptor and the L-type calcium channel” (Bioorg Med Chem Lett, 1995).
